How the values were obtained:
Conditions in all cases: 72 h
Vero E6 [1] = test: relative viability EC50 (midpoint between 100% and the lowest measured viability); higher = less toxic
HepG2 [2] = test: as above
U2OS [3] = test: as above
Calu-3 [4] = test: as above
Caco-2 [5] = test: as above
Vero E6 [6] = test: cell viability relative to DMSO; higher = less toxic
HepG2 [7] = test: as above
U2OS [8] = test: as above
Calu-3 [9] = test: as above
Caco-2 [10] = test: as above
Vero E6 [11] = test: drug sensitivity score (DSS) for viability; higher = more toxic; extreme values may be limits of the assay
HepG2 [12] = test: as above
U2OS [13] = test: as above
Calu-3 [14] = test: as above
Caco-2 [15] = test: as above

| Structure (SMILES) | relative viability EC50 (Vero E6 [1]) | relative viability EC50 (HepG2 [2]) | relative viability EC50 (U2OS [3]) | relative viability EC50 (Calu-3 [4]) | relative viability EC50 (Caco-2 [5]) | cell viability (Vero E6 [6]; 1 nM) | cell viability (Vero E6 [6]; 10 nM) | cell viability (Vero E6 [6]; 100 nM) | cell viability (Vero E6 [6]; 1000 nM) | cell viability (Vero E6 [6]; 10000 nM) | cell viability (HepG2 [7]; 1 nM) | cell viability (HepG2 [7]; 10 nM) | cell viability (HepG2 [7]; 100 nM) | cell viability (HepG2 [7]; 1000 nM) | cell viability (HepG2 [7]; 10000 nM) | cell viability (U2OS [8]; 1 nM) | cell viability (U2OS [8]; 10 nM) | cell viability (U2OS [8]; 100 nM) | cell viability (U2OS [8]; 1000 nM) | cell viability (U2OS [8]; 10000 nM) | cell viability (Calu-3 [9]; 1 nM) | cell viability (Calu-3 [9]; 10 nM) | cell viability (Calu-3 [9]; 100 nM) | cell viability (Calu-3 [9]; 1000 nM) | cell viability (Calu-3 [9]; 10000 nM) | cell viability (Caco-2 [10]; 1 nM) | cell viability (Caco-2 [10]; 10 nM) | cell viability (Caco-2 [10]; 100 nM) | cell viability (Caco-2 [10]; 1000 nM) | cell viability (Caco-2 [10]; 10000 nM) | drug sensitivity score (Vero E6 [11]) | drug sensitivity score (HepG2 [12]) | drug sensitivity score (U2OS [13]) | drug sensitivity score (Calu-3 [14]) | drug sensitivity score (Caco-2 [15]) |
| --- | --- | --- | --- | --- | --- | --- | --- | --- | --- | --- | --- | --- | --- | --- | --- | --- | --- | --- | --- | --- | --- | --- | --- | --- | --- | --- | --- | --- | --- | --- | --- | --- | --- | --- | --- |
| O=C(O)c1cnn(-c2nc3cc(OC(F)(F)F)c(Cl)cc3[nH]2)c1 | > 10 µM | > 10 µM | > 10 µM | > 10 µM | > 10 µM | 97.2% | 104% | 100% | 103% | 93.7% | 93.8% | 96.2% | 91.9% | 104% | 88.1% | 101% | 96% | 90.3% | 88.8% | 93.3% | 89.5% | 106% | 105% | 102% | 98.5% | 104% | 92.7% | 97.6% | 103% | 93.6% | 0 | 0 | 0.5 | 0 | 0 |
| CN(C)/C=N/c1c(I)cc(I)c(CCC(=O)O)c1I [iopodic-acid] | > 10 µM | > 10 µM | > 10 µM | > 10 µM | > 10 µM | 108% | 101% | 108% | 99.1% | 102% | 98.8% | 93.7% | 116% | 95% | 98.4% | 98.2% | 100% | 98.9% | 102% | 97.2% | 101% | 95.4% | 89.5% | 99.4% | 93.2% | 99.8% | 102% | 94.3% | 96.2% | 105% | 0 | 0 | 0 | 0 | 0 |
| C=CCN1CC[C@]23c4c5ccc(O)c4O[C@H]2[C@@H](OCCOCCOCCOCCOCCOCCOCCOC)CC[C@@]3(O)[C@H]1C5 [naloxegol] | > 10 µM | > 10 µM | > 10 µM | > 10 µM | > 10 µM | 101% | 96.7% | 103% | 97.5% | 105% | 99.8% | 94% | 97.8% | 93.6% | 107% | 93.9% | 99.1% | 95% | 98.8% | 96.5% | 97.1% | 107% | 91.7% | 101% | 88.7% | 107% | 97.9% | 98.5% | 104% | 105% | 0 | 0 | 0 | 0 | 0 |
| Cc1cc(-c2cc(OC(=O)c3ccccc3)ccc2Cl)cc2nnc(Nc3ccc(OCCN4CCCC4)cc3)nc12 | > 10 µM | > 10 µM | > 10 µM | > 10 µM | > 10 µM | 98.4% | 97.3% | 97.2% | 96.9% | 112% | 108% | 107% | 95.2% | 89% | 107% | 98.3% | 99% | 101% | 100% | 102% | 102% | 115% | 90.9% | 102% | 104% | 98.1% | 95.6% | 99% | 93% | 116% | 0 | 0 | 0 | 0 | 0 |
| O=[N+]([O-])c1cc(Cl)ccc1S(=O)(=O)N1CCN(Cc2ccccc2)CC1 [RN-1747] | > 10 µM | > 10 µM | > 10 µM | > 10 µM | > 10 µM | 99.5% | 92.2% | 93.4% | 96.1% | 102% | 105% | 92.9% | 104% | 86.9% | 104% | 94.6% | 100% | 96.2% | 102% | 106% | 96.4% | 104% | 94.6% | 102% | 106% | 94.3% | 94% | 96.2% | 106% | 99.9% | 0 | 0 | 0 | 0 | 0 |
| CC(=O)OCC(=O)[C@@]12N=C(C)O[C@@H]1C[C@H]1[C@@H]3CCC4=CC(=O)C=C[C@]4(C)[C@H]3[C@@H](O)C[C@@]12C [Deflazacort (Calcort)] | > 10 µM | > 10 µM | > 10 µM | > 10 µM | > 10 µM | 99.1% | 99% | 102% | 102% | 102% | 109% | 103% | 110% | 102% | 95.9% | 99.7% | 95.6% | 99.7% | 94.4% | 97.7% | 102% | 92.9% | 97.2% | 80.9% | 93.1% | 97.8% | 93.3% | 92.8% | 101% | 97.9% | 0 | 0 | 0 | 0.4 | 0 |
| OC[C@H]1NC[C@@H](O)[C@@H](O)[C@@H]1O [1-deoxymannojirimycin] | > 10 µM | > 10 µM | > 10 µM | > 10 µM | > 10 µM | 99.1% | 93% | 98.2% | 96.8% | 107% | 109% | 96.2% | 94.5% | 93.1% | 97.7% | 96.8% | 102% | 95.8% | 100% | 108% | 106% | 96.8% | 97% | 95.4% | 90.8% | 95.3% | 96.8% | 98.2% | 97% | 104% | 0 | 0 | 0 | 0 | 0 |
| N#CC(c1ccnc(OCc2ccc(CN3CCOCC3)cc2)n1)c1nc2ccccc2s1 (stereo not given) [PGL5001] | > 10 µM | > 10 µM | > 10 µM | > 10 µM | > 10 µM | 99.8% | 98.3% | 93.1% | 101% | 98.8% | 98.4% | 102% | 104% | 89.6% | 80.9% | 102% | 97.5% | 98.7% | 103% | 92% | 112% | 104% | 107% | 98.5% | 102% | 103% | 86% | 98.4% | 97% | 83.5% | 0 | 1.5 | 0 | 0 | 0.3 |
| CCCN(C/C=C/I)C1CCc2cccc(O)c2C1 (stereo not given) [8-hydroxy-PIPAT] | > 10 µM | > 10 µM | > 10 µM | > 10 µM | > 10 µM | 97.7% | 99.7% | 100% | 99.3% | 92.9% | 101% | 105% | 111% | 104% | 83.4% | 103% | 100% | 102% | 97.6% | 97.8% | 101% | 101% | 112% | 103% | 99.5% | 107% | 95.3% | 100% | 93.8% | 101% | 0 | 0.2 | 0 | 0 | 0 |
| Cc1ccc(S(=O)(=O)Nc2nc3ccccc3nc2Nc2ccc3nsnc3c2)cc1 [XL147] | > 10 µM | > 10 µM | > 10 µM | > 10 µM | > 10 µM | 93.7% | 94.1% | 100% | 96.3% | 95.2% | 107% | 101% | 90.9% | 97.7% | 99.5% | 96% | 103% | 104% | 99.2% | 95.1% | 93.3% | 113% | 98.6% | 88.6% | 97.6% | 96.1% | 107% | 98.6% | 105% | 92.9% | 0 | 0 | 0 | 0.4 | 0 |
| CC(=O)OCC1=C(C(=O)O)N2C(=O)[C@@H](NC(=O)CSc3ccncc3)[C@H]2SC1 [cephapirin] | > 10 µM | > 10 µM | > 10 µM | > 10 µM | > 10 µM | 95.6% | 98% | 95.6% | 97.1% | 102% | 104% | 91.1% | 102% | 93.3% | 103% | 96.6% | 99.6% | 93.8% | 94.6% | 104% | 98.9% | 92.3% | 90.9% | 101% | 97.7% | 93.9% | 109% | 94.8% | 97.6% | 96.1% | 0 | 0 | 0 | 0 | 0 |
